pIC50, pKd: −log10 of the molar value. Where a name gives a salt, the structure may show the parent alone.
Key:
[1] = biological target: T1, proMMP9(20-445;ΔFnII) (SEQ ID NO:6) (Homo sapiens, UniProt P14780, DEL216-390); experiment: ThermoFluor binding assay with proMMP9(20-445;ΔFnII); conditions: pH 7.0
T1 construct: start methionine (N); made in house; host or cells: E. coli BL21(DE3) RIL
T1 sequence (P14780 with tags, fused parts or gaps DEL216-390): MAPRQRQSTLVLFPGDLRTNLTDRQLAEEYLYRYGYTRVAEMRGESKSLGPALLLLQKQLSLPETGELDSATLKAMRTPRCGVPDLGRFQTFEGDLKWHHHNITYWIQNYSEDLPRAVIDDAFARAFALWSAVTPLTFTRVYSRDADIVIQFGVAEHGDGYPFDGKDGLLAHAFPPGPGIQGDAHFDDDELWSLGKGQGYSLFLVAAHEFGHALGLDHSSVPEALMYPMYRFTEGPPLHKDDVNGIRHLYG
In short: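 proMMP9(20-445;ΔFnII) at 2.8 μM with 50 μM 1,8-ANS in 50 mM HEPES pH 7.0, 100 mM NaCl, 0.001% Tween-20, 2.5 mM MgCl2, 300 μM CaCl2; compounds serially diluted in DMSO. Heated 40–90 °C at 1 °C/min, fluorescence read at 500±25 nm. Tm fit by standard equations; binding fit using DSC/TF-derived thermodynamic parameters.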

[2] = biological target: T2, proMMP9(67-444;ΔFnII) (SEQ ID NO:5) (Homo sapiens, UniProt P14780, DEL216-390); experiment: ThermoFluor binding assay with proMMP9(67-444;ΔFnII); conditions: pH 7.0
T2 construct: start methionine (N); made in house; host or cells: E. coli BL21(DE3) RIL
T2 sequence (P14780 with tags, fused parts or gaps DEL216-390): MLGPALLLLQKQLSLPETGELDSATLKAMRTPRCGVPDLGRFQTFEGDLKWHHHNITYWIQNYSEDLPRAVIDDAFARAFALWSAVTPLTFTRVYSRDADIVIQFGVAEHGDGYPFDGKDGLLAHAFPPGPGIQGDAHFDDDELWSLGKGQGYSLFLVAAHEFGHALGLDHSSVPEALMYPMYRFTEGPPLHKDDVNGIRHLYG
In short: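 Thermal shift binding with 3.5 μM proMMP9(67-444;ΔFnII) and 50 μM 1,8-ANS in 50 mM HEPES pH 7.0, 100 mM NaCl, 2.5 mM MgCl2, 300 μM CaCl2, 0.001% Tween-20, with serially diluted compound. Heated 40 to 90° C at 1° C/min; fluorescence-derived Tm fitted using DSC/ThermoFluor thermodynamic parameters.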

[3] = biological target: T3, full-length proMMP9(1-707) (SEQ ID NO:1) (Homo sapiens, UniProt P14780, R574P); experiment: proMMP9/MMP3 P126 Activation Assay; type: biochemical; conditions: 20 nM proMMP9, 20 nM MMP3, 80 min 37° C.
T3 construct: made in house; host or cells: HEK293 (proMMP9, secreted); E. coli (MMP3)
Description: The reaction volume was 50 μL. […] Reactivity of residual MMP3 towards P-126 substrate was minimal under these conditions.

[4] = biological target: proMMP13(1-268) (SEQ ID NO:7) (Homo sapiens, UniProt P45452); experiment: ThermoFluor binding assay with proMMP13(1-268); set-up: 6xHis (C); made in house; conditions: pH 7.0
Description: The ThermoFluor® (TF) assay is a 384-well plate-based binding assay that measures thermal stability of proteins (Biomol Screen 2001, 6, 429-40; Biochemistry 2005, 44, 5258-66). The experiments were carried out using instruments available from Johnson & Johnson Pharmaceutical Research & Development, LLC. TF dye used in all experiments was […] (1,8-ANS) (Invitrogen: A-47).
Compounds were arranged in a pre-dispensed plate (Greiner Bio-one: 781280), wherein compounds were serially diluted in 100% DMSO across 11 columns within a series. Columns 12 and 24 were used as DMSO reference and contained no compound. For multiple compound concentration-response experiments, the compound aliquots ([…]) were robotically predispensed directly into black 384-well polypropylene PCR microplates (Abgene: TF-0384/k) using a Cartesian Hummingbird liquid handler (DigiLab, Holliston, Mass.). Following compound dispense, protein and dye solutions were added to achieve the final assay volume of 3 μL. The assay solutions were overlayed with 1 μL of silicone oil (Fluka, type DC 200: 85411) to prevent evaporation.
Assay plates were robotically loaded onto a thermostatically controlled PCR-type thermal block and then heated from 40 to 90° C. at a ramp-rate of 1° C./min for all experiments. Fluorescence was measured by continuous illumination with UV light (Hamamatsu LC6) supplied via fiber optics and filtered through a band-pass filter (380-400 nm; >6 OD cutoff). Fluorescence emission of the entire 384-well plate was detected by measuring light intensity using a CCD camera (Sensys, Roper Scientific) filtered to detect 500±25 nm, resulting in simultaneous and independent readings of all 384 wells. A single image with 20-sec exposure time was collected at each temperature, and the sum of the pixel intensity in a given area of the assay plate was recorded vs temperature and fit to standard equations to yield the Tm (J Biomol Screen 2001, 6, 429-40).
Thermodynamic parameters necessary for fitting compound binding for each proMMP were estimated by differential scanning calorimetry (DSC) and from ThermoFluor® data. The heat capacity of unfolding for each protein was estimated from the molecular weight and from ThermoFluor® dosing data.
The proMMP13(1-268) (SEQ ID NO:7) protein sample preparations included a desalting buffer exchange step via a PD-10 gravity column (GE Healthcare). The desalting buffer exchange was performed prior to diluting the protein to the final assay concentration of 3.5 μM. The concentration of proMMP13(1-268) (SEQ ID NO:7) was estimated spectrophotometrically based on a calculated extinction coefficient of ε280=37000 M^−1cm^−1, a calculated molecular weight of 30.8 kDa, and calculated pI of 5.33. ThermoFluor® reference conditions were defined as follows: 100 μg/mL proMMP13(1-268) (SEQ ID NO:7), 25 μM 1,8-ANS, pH 7.0 Buffer (50 mM HEPES pH 7.0, 100 mM NaCl, 0.001% Tween-20, 2.5 mM MgCl2, 300 μM CaCl2). The thermodynamic parameters for proMMP13(1-268) (SEQ ID NO:7) are as follows: Tm (° C.)=67 (+/−0.1), ΔUH(Tm) (cal mol^−1)=107000(+/−5000), ΔUS(Tm) (cal mol^−1 K^−1)=318, ΔUCp (cal mol^−1 K^−1)=2600.

T3 sequence (P14780 20-707 R574P): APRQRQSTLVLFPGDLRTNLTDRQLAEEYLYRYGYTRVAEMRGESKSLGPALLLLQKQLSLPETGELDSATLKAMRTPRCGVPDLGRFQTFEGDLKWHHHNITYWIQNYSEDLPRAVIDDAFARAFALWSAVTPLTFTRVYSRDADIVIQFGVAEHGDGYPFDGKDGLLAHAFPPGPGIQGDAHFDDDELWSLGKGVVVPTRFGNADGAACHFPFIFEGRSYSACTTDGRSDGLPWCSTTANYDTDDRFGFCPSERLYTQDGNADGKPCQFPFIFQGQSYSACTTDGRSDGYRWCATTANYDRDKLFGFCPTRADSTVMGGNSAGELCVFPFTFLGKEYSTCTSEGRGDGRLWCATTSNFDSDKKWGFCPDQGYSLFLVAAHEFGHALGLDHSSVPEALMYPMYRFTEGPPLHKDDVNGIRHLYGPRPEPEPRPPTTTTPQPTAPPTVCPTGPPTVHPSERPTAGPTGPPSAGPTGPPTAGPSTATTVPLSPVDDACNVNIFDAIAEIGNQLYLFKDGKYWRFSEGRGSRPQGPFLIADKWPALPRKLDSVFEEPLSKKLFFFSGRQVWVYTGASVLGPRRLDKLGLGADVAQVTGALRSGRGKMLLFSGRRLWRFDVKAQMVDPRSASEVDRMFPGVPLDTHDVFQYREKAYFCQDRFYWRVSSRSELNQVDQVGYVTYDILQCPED

Structure (SMILES) | pKd [1] | pKd [2] | pIC50 [3] | pKd [4]
Cc1nc(N2CCOCC2)sc1-c1csc(Nc2cc(C(N)=O)ccc2OC(C)C)n1 [Example 89, 4-Isopropoxy-3-(4′-methyl-2′-morpholin-4-yl-[4,5′]bithiazolyl-2-ylamino)-benzamide.TFA] | 7.20 | 6.41 | 6.48 | 6.15
Cc1nc(N)sc1-c1csc(Nc2cc(S(N)(=O)=O)ccc2OC(C)C)n1 [Example 60, 3-(2′-Amino-4′-methyl-[4,5′]bithiazolyl-2-ylamino)-4-isopropoxy-benzenesulfonamide.TFA] | 7.24 | 6.96 | 6.46 | 7.15
COc1ccc(-c2ccnn2C)cc1Nc1nc(-c2sc(C)nc2C)cs1 [Example 139] | 4.12 | 4.96 | 5.28 | 5.09
COc1ccc(-c2cn[nH]c2)cc1Nc1nc(-c2sc(C)nc2C)cs1 [Example 138, (2′,4′-Dimethyl-[4,5′]bithiazolyl-2-yl)-[2-methoxy-5-(1H-pyrazol-4-yl)-phenyl]-amine] | 5.77 | 6.32 | 6.14 | 6.08
CCOc1ccc(-c2ncco2)cc1Nc1nc(-c2sc(N)nc2C)cs1 [Example 79, N^2-(2-Ethoxy-5-oxazol-2-yl-phenyl)-4′-methyl-[4,5′]bithiazolyl-2,2′diamine.HBr] | 5.92 | 7.28 | 6.26 | 6.62
CCN(CC)c1nc(C)c(-c2csc(Nc3cc(C(N)=O)ccc3OC(C)C)n2)s1 [Example 94, 3-(2′-Diethylamino-4′-methyl-[4,5′]bithiazolyl-2-ylamino)-4-isopropoxy-benzamide.TFA] | 6.51 | 5.77 | 6.40 | 5.21
Cc1nc(CN2CCOCC2)sc1-c1csc(Nc2cc(C(N)=O)ccc2OC(C)C)n1 [Example 124, 4-Isopropoxy-3-(4′-methyl-2′-morpholin-4-ylmethyl-[4,5′]bithiazolyl-2-ylamino)-benzamide.TFA] | 6.19 | 5.43 | 6.17 | 5.21
COc1ccc(N)cc1Nc1nc(-c2sc(NC(C)=O)nc2C)cs1 [Example 69, N-[2-(5-Amino-2-methoxy-phenylamino)-4′-methyl-[4,5′]bithiazolyl-2′-yl]-acetamide] | 5.32 | 5.96 | 5.85 | 4.60

Further lines, results first:

pKd [1] | pKd [2] | pIC50 [3] | pKd [4] | Structure (SMILES)
5.55 | 5.74 | 5.31 | 5.59 | CNC(=O)c1ccc(OC)c(Nc2nc(-c3sc(N)nc3C)cs2)c1 [Example 66, 3-(2′-Amino-4′-methyl-[4,5′]bithiazolyl-2-ylamino)-4-methoxy-N-methyl-benzamide.TFA]
6.57 | 5.96 | 6.23 | 5.62 | CCOC(=O)c1nc(C)c(-c2csc(Nc3cc(C(N)=O)ccc3OC(C)C)n2)s1 [Example 99, 2-(5-carbamoyl-2-isopropoxy-phenylamino)-4′-methyl-[4,5′]bithiazolyl-2′-carboxylic acid ethyl esterHBr]
< 4.02 | 6.17 | 6.21 | 5.64 | Cc1nc(-c2ccncc2)sc1-c1csc(Nc2cc(C(N)=O)ccc2OC(C)C)n1 [Example 98, 4-Isopropoxy-3-(4′-methyl-2′-pyridin-4-yl-[4,5′]bithiazolyl-2-ylamino)-benzamide.TFA]
5.92 | 6.70 | 6.21 | 5.47 | COC(=O)c1ccc(OC)c(Nc2nc(-c3sc(N)nc3C)cs2)c1 [Example 86, 3-(2′-Amino-4′-methyl-[4,5′]bithiazolyl-2-ylamino)-4-methoxy-benzoic acid methyl ester TFA]
6.24 | 6.11 | 6.37 | 6.43 | Cc1nc(C)c(-c2csc(Nc3cc(C(=O)O)ccc3OC(C)C)n2)s1 [Example 76, 3-(2′,4′-Dimethyl-[4,5′]bithiazolyl-2-ylamino)-4-isopropoxy-benzoic acid]
6.00 | 6.51 | 6.05 | 5.82 | COc1ccc(C#N)cc1Nc1nc(-c2sc(N)nc2C)cs1 [Example 40, 3-(2′-Amino-4′-methyl-[4,5′]bithiazolyl-2-ylamino)-4-methoxy-benzonitrile.HBr]
7.07 | 6.54 | 7.09 | 6.44 | Cc1nc(C(=O)NC2CCN(C(C)C)CC2)sc1-c1csc(Nc2cc(C(N)=O)ccc2OC(C)C)n1 [Example 111, 2-(5-Carbamoyl-2-isopropoxy-phenylamino)-4′-methyl-[4,5′]bithiazolyl-2′-carboxylic acid (1-isopropyl-piperidin-4-yl)-amide.TFA]
6.89 | 6.32 | 6.70 | 6.16 | Cc1nc(C(=O)N2CCC(N(C)C)CC2)sc1-c1csc(Nc2cc(C(N)=O)ccc2OC(C)C)n1 [Example 110, 3-[2′-(4-Dimethylamino-piperidine-1-carbonyl)-4′-methyl-[4,5]bithiazolyl-2-ylamino]-4-isopropoxy-benzamide.TFA]
4.89 | < 4.02 | 5.14 | 5.54 | Cc1nc(C)c(-c2csc(Nc3cc(S(N)(=O)=O)cc4c3OCC4)n2)s1 [Example 33, 7-(2′,4′-Dimethyl-[4,5′]bithiazolyl-2-ylamino)-2,3-dihydro-benzofuran-5-sulfonic acid amide]
7.68 | 6.80 | 6.80 | 7.09 | Cc1nc(N)sc1-c1csc(Nc2cc(C(N)=O)ccc2OC(C)C)n1 [Example 2, 3-(2′-Amino-4′-methyl-[4,5′]bithiazolyl-2-ylamino)-4-isopropoxy-benzamide.HBr]
